Experimental data published in patent US20230398130A1, “METHODS AND COMPOSITIONS FOR DIFFERENTIATING STEM CELLS” (Massachusetts Institute of Technology, priority 2020, published 2023).

Key:
ISC-enriched organoids [1] = test: Primary screen, 384-well 2.5-D organoid differentiation (ENR+CD, 6 days): carbachol-induced lysozyme secretion (LYZ.S); assay type: cell-based, murine; details: for Dose.FC.LYZ.S: FC vs plate median; for Z.LYZ.S: standard z score; for SSMD.LYZ.S: strictly standardized mean difference
Source text: (§1) High-throughput screening.

ISC-enriched organoids [2] = test: Primary screen, 384-well 2.5-D organoid differentiation (ENR+CD, 6 days): basal lysozyme secretion (LYZ.NS); assay type: cell-based, murine; details: for Dose.FC.LYZ.NS: FC vs plate median; for SSMD.LYZ.NS: strictly standardized mean difference
Source text: as §1

ISC-enriched organoids [3] = test: Primary screen, 384-well 2.5-D organoid differentiation (ENR+CD, 6 days, Target Selective Inhibitor Library, vs whole-plate median): ATP (CellTiter-Glo 3D, CTG); details: for Dose.FC.CTG: FC vs plate median; for SSMD.CTG: strictly standardized mean difference
[4] = primary screen, 1st of the 4 dose lines of the treatment (dose not given)
[5] = primary screen, 2nd of the 4 dose lines of the treatment (dose not given)
[6] = primary screen, 3rd of the 4 dose lines of the treatment (dose not given)
[7] = primary screen, 4th of the 4 dose lines of the treatment (dose not given)
[8] = Dose 0.08 uM, primary screen, standard z score
[9] = Dose 0.40 uM, primary screen, standard z score
[10] = Dose 2.00 uM, primary screen, standard z score
[11] = Dose 10.00 uM, primary screen, standard z score
[12] = Dose 0.08 uM, standard z score of FC
[13] = Dose 0.40 uM, standard z score of FC
[14] = Dose 2.00 uM, standard z score of FC
[15] = Dose 10.00 uM, standard z score of FC

Molecule O=C(/C=C\n1cnc(-c2cc(C(F)(F)F)cc(C(F)(F)F)c2)n1)N1CC(F)(F)C1 [KPT-276] has a Dose.FC.LYZ.S (ISC-enriched organoids [1]; Dose 0.08 uM, primary screen) of 0.133 log 2 fold change, a Dose.FC.LYZ.S (ISC-enriched organoids [1]; Dose 0.40 uM, primary screen) of 0.148 log 2 fold change and a Dose.FC.LYZ.S (ISC-enriched organoids [1]; Dose 2.00 uM, primary screen) of −0.327 log 2 fold change. It also gave a Dose.FC.LYZ.S (ISC-enriched organoids [1]; Dose 10.00 uM, primary screen) of −0.361 log 2 fold change, a Z.LYZ.S (ISC-enriched organoids [1]; [4]) of 0.860 and a Z.LYZ.S (ISC-enriched organoids [1]; [5]) of 0.958. For the same molecule, the Z.LYZ.S (ISC-enriched organoids [1]; [6]) was −2.111, the Z.LYZ.S (ISC-enriched organoids [1]; [7]) was −2.335 and the SSMD.LYZ.S (ISC-enriched organoids [1]; [4]) was 0.806. The SSMD.LYZ.S (ISC-enriched organoids [1]; [5]) was 0.771, the SSMD.LYZ.S (ISC-enriched organoids [1]; [6]) was −1.399 and the SSMD.LYZ.S (ISC-enriched organoids [1]; [7]) was −1.417. It also gave a Dose.FC.LYZ.NS (ISC-enriched organoids [2]; Dose 0.08 uM, primary screen) of 0.056 log 2 fold change, a Z.LYZ.NS (ISC-enriched organoids [2]; [8]) of 0.492 and a Dose.FC.LYZ.NS (ISC-enriched organoids [2]; Dose 0.40 uM, primary screen) of 0.086 log 2 fold change. For the same molecule, the Z.LYZ.NS (ISC-enriched organoids [2]; [9]) was 0.746, the Dose.FC.LYZ.NS (ISC-enriched organoids [2]; Dose 2.00 uM, primary screen) was −0.224 log 2 fold change and the Z.LYZ.NS (ISC-enriched organoids [2]; [10]) was −1.947. For the same molecule, the Dose.FC.LYZ.NS (ISC-enriched organoids [2]; Dose 10.00 uM, primary screen) was −0.256 log 2 fold change, the Z.LYZ.NS (ISC-enriched organoids [2]; [11]) was −2.230 and the SSMD.LYZ.NS (ISC-enriched organoids [2]; [4]) was 0.486. It also gave an SSMD.LYZ.NS (ISC-enriched organoids [2]; [5]) of 0.742, an SSMD.LYZ.NS (ISC-enriched organoids [2]; [6]) of −1.426 and an SSMD.LYZ.NS (ISC-enriched organoids [2]; [7]) of −1.384. The Dose.FC.CTG (ISC-enriched organoids [3]; Dose 0.08 uM, primary screen) was 0.167 log 2 fold change, the Z.CTG (ISC-enriched organoids [3]; [8]) was 0.399 and the Dose.FC.CTG (ISC-enriched organoids [3]; Dose 0.40 uM, primary screen) was −0.044 log 2 fold change. The Z.CTG (ISC-enriched organoids [3]; [9]) was −0.104, the Dose.FC.CTG (ISC-enriched organoids [3]; Dose 2.00 uM, primary screen) was −0.413 log 2 fold change and the Z.CTG (ISC-enriched organoids [3]; [10]) was −0.986. The Dose.FC.CTG (ISC-enriched organoids [3]; Dose 10.00 uM, primary screen) was −0.703 log 2 fold change, the Z.CTG (ISC-enriched organoids [3]; [11]) was −1.680 and the SSMD.CTG (ISC-enriched organoids [3]; [4]) was 0.494. The SSMD.CTG (ISC-enriched organoids [3]; [5]) was −0.146, the SSMD.CTG (ISC-enriched organoids [3]; [6]) was −0.772 and the SSMD.CTG (ISC-enriched organoids [3]; [7]) was −2.520.
CC(C)C[C@H](NC(=O)[C@@H](NC(=O)c1cccc(-c2ccccc2)n1)[C@@H](C)O)B(O)O [CEP-18770 (Delanzomib)] was tested, and the Dose.FC.LYZ.S (ISC-enriched organoids [1]; Dose 0.08 uM, ENR+CD, 6 days) was −0.179 log 2 fold change, the Dose.FC.LYZ.S (ISC-enriched organoids [1]; Dose 0.40 uM, ENR+CD, 6 days) was −0.159 log 2 fold change and the Dose.FC.LYZ.S (ISC-enriched organoids [1]; Dose 2.00 uM, ENR+CD, 6 days) was −0.180 log 2 fold change. It also gave a Dose.FC.LYZ.S (ISC-enriched organoids [1]; Dose 10.00 uM, ENR+CD, 6 days) of −0.149 log 2 fold change, a Dose.FC.LYZ.NS (ISC-enriched organoids [2]; Dose 0.08 uM, ENR+CD, 6 days) of −0.108 log 2 fold change and a Z.LYZ.NS (ISC-enriched organoids [2]; [12]) of −0.937. The Dose.FC.LYZ.NS (ISC-enriched organoids [2]; Dose 0.40 uM, ENR+CD, 6 days) was −0.076 log 2 fold change, the Z.LYZ.NS (ISC-enriched organoids [2]; [13]) was −0.664 and the Dose.FC.LYZ.NS (ISC-enriched organoids [2]; Dose 2.00 uM, ENR+CD, 6 days) was −0.063 log 2 fold change. For the same molecule, the Z.LYZ.NS (ISC-enriched organoids [2]; [14]) was −0.546, the Dose.FC.LYZ.NS (ISC-enriched organoids [2]; Dose 10.00 uM, ENR+CD, 6 days) was −0.035 log 2 fold change and the Z.LYZ.NS (ISC-enriched organoids [2]; [15]) was −0.308. The Dose.FC.CTG (ISC-enriched organoids [3]; Dose 0.08 uM, ENR+CD, 6 days) was −0.953 log 2 fold change, the Z.CTG (ISC-enriched organoids [3]; [12]) was −2.276 and the Dose.FC.CTG (ISC-enriched organoids [3]; Dose 0.40 uM, ENR+CD, 6 days) was −1.642 log 2 fold change. The Z.CTG (ISC-enriched organoids [3]; [13]) was −3.923, the Dose.FC.CTG (ISC-enriched organoids [3]; Dose 2.00 uM, ENR+CD, 6 days) was −0.990 log 2 fold change and the Z.CTG (ISC-enriched organoids [3]; [14]) was −2.364. The Dose.FC.CTG (ISC-enriched organoids [3]; Dose 10.00 uM, ENR+CD, 6 days) was −1.148 log 2 fold change and the Z.CTG (ISC-enriched organoids [3]; [15]) was −2.742.
O=C(c1cn(Cc2cncn2Cc2ccc(Br)cc2)cc1-c1cccc2ccccc12)N1CCOCC1 [LB42708] gave a Dose.FC.LYZ.S (ISC-enriched organoids [1]; Dose 0.08 uM, primary screen) of −0.089 log 2 fold change, a Dose.FC.LYZ.S (ISC-enriched organoids [1]; Dose 0.40 uM, primary screen) of −0.144 log 2 fold change and a Dose.FC.LYZ.S (ISC-enriched organoids [1]; Dose 2.00 uM, primary screen) of −0.238 log 2 fold change. It also gave a Dose.FC.LYZ.S (ISC-enriched organoids [1]; Dose 10.00 uM, primary screen) of −0.233 log 2 fold change, a Z.LYZ.S (ISC-enriched organoids [1]; [4]) of −0.576 and a Z.LYZ.S (ISC-enriched organoids [1]; [5]) of −0.934. The Z.LYZ.S (ISC-enriched organoids [1]; [6]) was −1.539, the Z.LYZ.S (ISC-enriched organoids [1]; [7]) was −1.509 and the SSMD.LYZ.S (ISC-enriched organoids [1]; [4]) was −0.519. For the same molecule, the SSMD.LYZ.S (ISC-enriched organoids [1]; [5]) was −0.630, the SSMD.LYZ.S (ISC-enriched organoids [1]; [6]) was −0.965 and the SSMD.LYZ.S (ISC-enriched organoids [1]; [7]) was −0.864. It also gave a Dose.FC.LYZ.NS (ISC-enriched organoids [2]; Dose 0.08 uM, primary screen) of −0.116 log 2 fold change, a Z.LYZ.NS (ISC-enriched organoids [2]; [8]) of −1.010 and a Dose.FC.LYZ.NS (ISC-enriched organoids [2]; Dose 0.40 uM, primary screen) of −0.140 log 2 fold change. The Z.LYZ.NS (ISC-enriched organoids [2]; [9]) was −1.221, the Dose.FC.LYZ.NS (ISC-enriched organoids [2]; Dose 2.00 uM, primary screen) was −0.176 log 2 fold change and the Z.LYZ.NS (ISC-enriched organoids [2]; [10]) was −1.531. It also gave a Dose.FC.LYZ.NS (ISC-enriched organoids [2]; Dose 10.00 uM, primary screen) of −0.182 log 2 fold change, a Z.LYZ.NS (ISC-enriched organoids [2]; [11]) of −1.587 and an SSMD.LYZ.NS (ISC-enriched organoids [2]; [4]) of −1.118. For the same molecule, the SSMD.LYZ.NS (ISC-enriched organoids [2]; [5]) was −1.157, the SSMD.LYZ.NS (ISC-enriched organoids [2]; [6]) was −1.034 and the SSMD.LYZ.NS (ISC-enriched organoids [2]; [7]) was −0.939. For the same molecule, the Dose.FC.CTG (ISC-enriched organoids [3]; Dose 0.08 uM, primary screen) was −0.072 log 2 fold change, the Z.CTG (ISC-enriched organoids [3]; [8]) was −0.172 and the Dose.FC.CTG (ISC-enriched organoids [3]; Dose 0.40 uM, primary screen) was −0.342 log 2 fold change. The Z.CTG (ISC-enriched organoids [3]; [9]) was −0.817, the Dose.FC.CTG (ISC-enriched organoids [3]; Dose 2.00 uM, primary screen) was −0.116 log 2 fold change and the Z.CTG (ISC-enriched organoids [3]; [10]) was −0.277. It also gave a Dose.FC.CTG (ISC-enriched organoids [3]; Dose 10.00 uM, primary screen) of −0.706 log 2 fold change, a Z.CTG (ISC-enriched organoids [3]; [11]) of −1.685 and an SSMD.CTG (ISC-enriched organoids [3]; [4]) of −0.254. It also gave an SSMD.CTG (ISC-enriched organoids [3]; [5]) of −0.531, an SSMD.CTG (ISC-enriched organoids [3]; [6]) of −0.186 and an SSMD.CTG (ISC-enriched organoids [3]; [7]) of −1.059.
